# Results reported in patent publication US12582731B2, “Method to decontaminate solid surface” (BIOMONETA RESEARCH PVT LTD, priority 2022, dated 2026).
# Several values for one entry are separate records, joined by “and”; a condition that tells them apart may be missing. Identical values can stand only once.
# What was measured:
# Assay type in all cases: cell-based
# microbial load [1] = assay: Microbial load reduction on QAC-coated metal surface (aluminium plate) with or without electric field
# Experimental: The effect of QAC coating and electric field application on non-flexible/hard solid surfaces was analysed. The solid surface analysed was a metal surface (aluminium plate). The coating procedure of QAC (cetrimonium salt—CTAB) was identical to the procedure described in Example 1. The final coated amount of CTAB was between 0.01-0.05 mg/cm^2 of the solid surface. The electric field in this experiment was applied via. switch mode power supply (SMPS) with a voltage of 4 kV/cm coupled with a capacitance of 0.05 μF for various time-periods.
# It was observed that when the metal was coated with low concentration of cetrimonium salt (CTAB) followed by application of electric field, the subjected microbial load was completely eliminated (>7 log10 reduction in microbial load or >99.99999% reduction in microbial load) within 10 minutes [Experiment No. 4]. […] Lastly, under normal conditions, when the metal was left undisturbed, the microbial load remained largely unaltered over a period of 30 minutes [Experiment No. 1].
# microbial load [2] = assay: Microbial load reduction on cotton cloth coated with quaternary ammonium compound alone; details: no electric field
# Experimental: The solid surface (cotton cloth) was suspended in a solution containing cetyltrimethylammonium bromide (CTAB) or alkyl dimethyl benzyl ammonium chloride (benzalkonium chloride) at various concentrations for about 2 hours. The solid surfaces were then heat dried in a furnace where the temperature was set at about 80° C., for about 8 hours. Once dried, the solid surfaces coated with QAC were ready to be used for various applications.
# Reduction in microbial load was analysed at different concentrations of QACs.
# microbial load [3] = assay: Microbial load reduction on QAC-coated cotton cloth with or without electric field; details: for Microbial Load Reduction (Log10 Scale): cotton cloth coated with 0.01% w/v
# Experimental: The effect of QAC coating and electric field application on flexible solid surfaces was analysed. The solid surface analysed was fabric (cotton cloth). The procedure for coating of QAC (CTAB or benzalkonium chloride) onto the cotton cloth was identical to the procedure described in Example 1. The final coated amount of QAC (CTAB or benzalkonium chloride) was between 0.01-0.05 mg/cm^2 of the solid surface. The electric field in this experiment was applied via. switch mode power supply (SMPS) with a voltage of 4 kV/cm coupled with a capacitance of 0.05 μF for various time-periods.
# Reduction in microbial load was analysed using different methods.
# microbial load [4] = assay: Microbial load reduction on CTAB-coated polyester cotton fabric, electric field with varying capacitance; details: for Microbial Load Reduction (Log10 Scale): polyester cotton fabric 90:10, 0.02±0.005% w/v coating, electric field 4 kV/cm DC
# Experimental: The effect of QAC coating and varying electric field application on solid surfaces was analysed. The solid surface analysed was polyester cotton fabric in the ratio 90:10. The procedure for coating of QAC (CTAB) onto the said polyester cotton fabric was identical to the procedure described in Example 1. The CTAB concentration employed was 0.02±0.005% w/v and the final coated amount of QAC (CTAB) was between 0.01-0.05 mg/cm^2 of the solid surface. The electric field in this experiment was applied via. switch mode power supply (SMPS).
# microbial load [5] = assay: Microbial load reduction on CTAB-coated polyester cotton fabric, electric field with varying voltage; details: for Microbial load reduction (Log10 scale) at 10 mins: polyester cotton fabric, 0.02±0.005% w/v coating, capacitance 0.05 μF
# Experimental: Another set of experiments were conducted wherein the procedure for coating of QAC (CTAB) onto the polyester cotton fabric was identical to the procedure described in Example 1. The CTAB concentration employed was 0.02±0.005% w/v and the final coated amount of QAC (CTAB) was between 0.01-0.05 mg/cm^2 of the solid surface. The electric field in this experiment was applied via. switch mode power supply (SMPS).
smiles,measurement,setting,value
"CCCCCCCCCCCCCCCC[N+](C)(C)C.[Br-] [CTAB, cetyltrimethylammonium bromide]",Microbial Load Reduction (Log10 Scale),"microbial load [1]; Metal (aluminium plate) + QAC 0.01% w/v + Electric Field (SMPS, 4 kV/cm, 0.05 μF), 0 mins",0.00 Log10
same,Microbial Load Reduction (Log10 Scale),"microbial load [1]; Metal (aluminium plate) + QAC 0.01% w/v + Electric Field (SMPS, 4 kV/cm, 0.05 μF), 5 mins",5.55 Log10
same,Microbial Load Reduction (Log10 Scale),"microbial load [1]; Metal (aluminium plate) + QAC 0.01% w/v + Electric Field (SMPS, 4 kV/cm, 0.05 μF), 10 mins",7.51 Log10
same,Microbial Load Reduction (Log10 Scale),"microbial load [1]; Metal (aluminium plate) + QAC 0.01% w/v + Electric Field (SMPS, 4 kV/cm, 0.05 μF), 20 mins",7.51 Log10
same,Microbial Load Reduction (Log10 Scale),"microbial load [1]; Metal (aluminium plate) + QAC 0.01% w/v + Electric Field (SMPS, 4 kV/cm, 0.05 μF), 30 mins",7.51 Log10
same,Microbial Load Reduction (Log10 Scale),"microbial load [1]; Metal (aluminium plate) + QAC 0.01% w/v, no electric field, 0 mins",0.00 Log10
same,Microbial Load Reduction (Log10 Scale),"microbial load [1]; Metal (aluminium plate) + QAC 0.01% w/v, no electric field, 5 mins",0.22 Log10
same,Microbial Load Reduction (Log10 Scale),"microbial load [1]; Metal (aluminium plate) + QAC 0.01% w/v, no electric field, 10 mins",0.42 Log10
same,Microbial Load Reduction (Log10 Scale),"microbial load [1]; Metal (aluminium plate) + QAC 0.01% w/v, no electric field, 20 mins",0.57 Log10
same,Microbial Load Reduction (Log10 Scale),"microbial load [1]; Metal (aluminium plate) + QAC 0.01% w/v, no electric field, 30 mins",0.95 Log10
same,reduction in the microbial load,"microbial load [1]; metal coated with CTAB alone, at 30 minutes (Experiment No. 3)",no significant reduction in the microbial load
same,Microbial Load Reduction (Log10 Scale),"microbial load [2]; cotton cloth coated with 0.01% w/v, 0 mins",0.00 Log10
same,Microbial Load Reduction (Log10 Scale),"microbial load [2]; cotton cloth coated with 0.01% w/v, 10 mins",1.11 Log10
same,Microbial Load Reduction (Log10 Scale),"microbial load [2]; cotton cloth coated with 0.01% w/v, 30 mins",2.52 Log10
same,Microbial Load Reduction (Log10 Scale),"microbial load [2]; cotton cloth coated with 0.01% w/v, 45 mins",4.35 Log10
same,Microbial Load Reduction (Log10 Scale),"microbial load [2]; cotton cloth coated with 0.01% w/v, 60 mins",7.60 Log10
same,Microbial Load Reduction (Log10 Scale),"microbial load [2]; cotton cloth coated with 0.01% w/v, 90 mins",7.60 Log10
same,Microbial Load Reduction (Log10 Scale),"microbial load [2]; cotton cloth coated with 0.05% w/v, 0 mins",0.00 Log10
same,Microbial Load Reduction (Log10 Scale),"microbial load [2]; cotton cloth coated with 0.05% w/v, 10 mins",1.18 Log10
same,Microbial Load Reduction (Log10 Scale),"microbial load [2]; cotton cloth coated with 0.05% w/v, 30 mins",2.54 Log10
same,Microbial Load Reduction (Log10 Scale),"microbial load [2]; cotton cloth coated with 0.05% w/v, 45 mins",5.12 Log10
same,Microbial Load Reduction (Log10 Scale),"microbial load [2]; cotton cloth coated with 0.05% w/v, 60 mins",7.32 Log10
same,Microbial Load Reduction (Log10 Scale),"microbial load [2]; cotton cloth coated with 0.05% w/v, 90 mins",7.32 Log10
same,Microbial Load Reduction (Log10 Scale),"microbial load [2]; cotton cloth coated with 0.1% w/v, 0 mins",0.00 Log10
same,Microbial Load Reduction (Log10 Scale),"microbial load [2]; cotton cloth coated with 0.1% w/v, 10 mins",7.41 Log10
same,Microbial Load Reduction (Log10 Scale),"microbial load [2]; cotton cloth coated with 0.1% w/v, 30 mins",7.41 Log10
same,Microbial Load Reduction (Log10 Scale),"microbial load [2]; cotton cloth coated with 0.1% w/v, 45 mins",7.41 Log10
same,Microbial Load Reduction (Log10 Scale),"microbial load [2]; cotton cloth coated with 0.1% w/v, 60 mins",7.41 Log10
same,Microbial Load Reduction (Log10 Scale),"microbial load [2]; cotton cloth coated with 0.1% w/v, 90 mins",7.41 Log10
same,Microbial Load Reduction (Log10 Scale),"microbial load [2]; cotton cloth coated with 0.25% w/v, 0 mins",0.00 Log10
same,Microbial Load Reduction (Log10 Scale),"microbial load [2]; cotton cloth coated with 0.25% w/v, 10 mins",7.45 Log10
same,Microbial Load Reduction (Log10 Scale),"microbial load [2]; cotton cloth coated with 0.25% w/v, 30 mins",7.45 Log10
same,Microbial Load Reduction (Log10 Scale),"microbial load [2]; cotton cloth coated with 0.25% w/v, 45 mins",7.45 Log10
same,Microbial Load Reduction (Log10 Scale),"microbial load [2]; cotton cloth coated with 0.25% w/v, 60 mins",7.45 Log10
same,Microbial Load Reduction (Log10 Scale),"microbial load [2]; cotton cloth coated with 0.25% w/v, 90 mins",7.45 Log10
same,Microbial Load Reduction (Log10 Scale),"microbial load [2]; cotton cloth coated with 0.5% w/v, 0 mins",0.00 Log10
same,Microbial Load Reduction (Log10 Scale),"microbial load [2]; cotton cloth coated with 0.5% w/v, 10 mins",7.00 Log10
same,Microbial Load Reduction (Log10 Scale),"microbial load [2]; cotton cloth coated with 0.5% w/v, 30 mins",7.00 Log10
same,Microbial Load Reduction (Log10 Scale),"microbial load [2]; cotton cloth coated with 0.5% w/v, 45 mins",7.00 Log10
same,Microbial Load Reduction (Log10 Scale),"microbial load [2]; cotton cloth coated with 0.5% w/v, 60 mins",7.00 Log10
same,Microbial Load Reduction (Log10 Scale),"microbial load [2]; cotton cloth coated with 0.5% w/v, 90 mins",7.00 Log10
same,Microbial Load Reduction (Log10 Scale),"microbial load [2]; cotton cloth coated with 0.75% w/v, 0 mins",0.00 Log10
same,Microbial Load Reduction (Log10 Scale),"microbial load [2]; cotton cloth coated with 0.75% w/v, 10 mins",7.78 Log10
same,Microbial Load Reduction (Log10 Scale),"microbial load [2]; cotton cloth coated with 0.75% w/v, 30 mins",7.78 Log10
same,Microbial Load Reduction (Log10 Scale),"microbial load [2]; cotton cloth coated with 0.75% w/v, 45 mins",7.78 Log10
same,Microbial Load Reduction (Log10 Scale),"microbial load [2]; cotton cloth coated with 0.75% w/v, 60 mins",7.78 Log10
same,Microbial Load Reduction (Log10 Scale),"microbial load [2]; cotton cloth coated with 0.75% w/v, 90 mins",7.78 Log10
same,log10 reduction in microbial load,"microbial load [3]; coated cotton cloth not subjected to electric field, until 30 minutes (Experiment 1 Trial 1 and 3)",≤ 2.16 log10
same,Microbial Load Reduction (Log10 Scale),"microbial load [3]; With Electric Field (SMPS, 4 kV/cm, 0.05 μF), 0 mins",0.00 Log10
same,Microbial Load Reduction (Log10 Scale),"microbial load [3]; With Electric Field (SMPS, 4 kV/cm, 0.05 μF), 10 mins",7.48 Log10 and 7.30 Log10
same,Microbial Load Reduction (Log10 Scale),"microbial load [3]; With Electric Field (SMPS, 4 kV/cm, 0.05 μF), 30 mins",7.48 Log10 and 7.30 Log10
same,Microbial Load Reduction (Log10 Scale),"microbial load [3]; Without Electric Field, 0 mins",0.00 Log10
same,Microbial Load Reduction (Log10 Scale),"microbial load [3]; Without Electric Field, 10 mins",1.09 Log10 and 1.06 Log10
same,Microbial Load Reduction (Log10 Scale),"microbial load [3]; Without Electric Field, 30 mins",2.16 Log10 and 2.15 Log10
same,reduction in the microbial load,microbial load [4]; coating followed by electric field at capacitance 0.00025 μF or 0.000025 μF (Experiments 4 and 5),a notable reduction in the microbial load was observed only around 5 minutes
same,Microbial Load Reduction (Log10 Scale),"microbial load [4]; capacitance 0.000025 μF, 3 mins",1.01 Log10
same,Microbial Load Reduction (Log10 Scale),"microbial load [4]; capacitance 0.000025 μF, 4 mins",2.09 Log10
same,Microbial Load Reduction (Log10 Scale),"microbial load [4]; capacitance 0.000025 μF, 5 mins",3.20 Log10
same,Microbial Load Reduction (Log10 Scale),"microbial load [4]; capacitance 0.00025 μF, 3 mins",1.01 Log10
same,Microbial Load Reduction (Log10 Scale),"microbial load [4]; capacitance 0.00025 μF, 4 mins",3.20 Log10
same,Microbial Load Reduction (Log10 Scale),"microbial load [4]; capacitance 0.00025 μF, 5 mins",4.44 Log10
same,Microbial Load Reduction (Log10 Scale),"microbial load [4]; capacitance 0.0025 μF, 3 mins",2.12 Log10
same,Microbial Load Reduction (Log10 Scale),"microbial load [4]; capacitance 0.0025 μF, 4 mins",3.27 Log10
same,Microbial Load Reduction (Log10 Scale),"microbial load [4]; capacitance 0.0025 μF, 5 mins",6.78 Log10
same,Microbial Load Reduction (Log10 Scale),"microbial load [4]; capacitance 0.025 μF, 3 mins",4.32 Log10
same,Microbial Load Reduction (Log10 Scale),"microbial load [4]; capacitance 0.025 μF, 4 mins",6.78 Log10
same,Microbial Load Reduction (Log10 Scale),"microbial load [4]; capacitance 0.025 μF, 5 mins",6.78 Log10
same,Microbial Load Reduction (Log10 Scale),"microbial load [4]; capacitance 0.05 μF, 3 mins",4.44 Log10
same,Microbial Load Reduction (Log10 Scale),"microbial load [4]; capacitance 0.05 μF, 4 mins",6.78 Log10
same,Microbial Load Reduction (Log10 Scale),"microbial load [4]; capacitance 0.05 μF, 5 mins",6.78 Log10
same,reduction in the microbial load,"microbial load [5]; coating followed by electric field at voltage lower than 2 kV/cm (0.5, 0.75, 1 or 1.25 kV/cm)",no notable reduction in the microbial load
same,Microbial load reduction (Log10 scale) at 10 mins,microbial load [5]; applied voltage 0.5 kV/cm,1.18 Log10
same,Microbial load reduction (Log10 scale) at 10 mins,microbial load [5]; applied voltage 0.75 kV/cm,1.22 Log10
same,Microbial load reduction (Log10 scale) at 10 mins,microbial load [5]; applied voltage 1 kV/cm,1.44 Log10
same,Microbial load reduction (Log10 scale) at 10 mins,microbial load [5]; applied voltage 1.25 kV/cm,1.68 Log10
same,Microbial load reduction (Log10 scale) at 10 mins,microbial load [5]; applied voltage 2 kV/cm,7.68 Log10
same,Microbial load reduction (Log10 scale) at 10 mins,microbial load [5]; applied voltage 2.5 kV/cm,8.78 Log10
same,Microbial load reduction (Log10 scale) at 10 mins,microbial load [5]; applied voltage 3 kV/cm,9.42 Log10
